13 compounds from ChEMBL document CHEMBL4251699, “In Search of the Optimal Macrocyclization Site for Neurotensin” (ACS Med Chem Lett, 2018) can be followed below.

Structures are written as SMILES. Numbered stars: 1 amine (or outer) side, 2 acyl side, 3 side chain; on linkers, the order of the positions; unused ones are H or OH. Bridge positions count the residues as written; N and C are the ends. Square brackets hold non-standard residues; d marks the D form. Peptide text beside a SMILES is read from it. * marks the point of attachment. X1 = O=C([C@H](Cc1ccc(O)c(CC=[*:3])c1)N[*:1])[*:2]; X3 = C=CCc1cc(C[C@H](N[*:1])C(=O)[*:2])ccc1O; Ser(allyl) = C=CCOC[C@H](N)C(=O)O; AllylGly = C=CC[C@H](N)C(=O)O; X2 = C=CCCCCCCC(=O)* A value given as a limit tells only on which side of the number the result lay.

T1 sequence (P30989 whole entry, the tested form may be a part): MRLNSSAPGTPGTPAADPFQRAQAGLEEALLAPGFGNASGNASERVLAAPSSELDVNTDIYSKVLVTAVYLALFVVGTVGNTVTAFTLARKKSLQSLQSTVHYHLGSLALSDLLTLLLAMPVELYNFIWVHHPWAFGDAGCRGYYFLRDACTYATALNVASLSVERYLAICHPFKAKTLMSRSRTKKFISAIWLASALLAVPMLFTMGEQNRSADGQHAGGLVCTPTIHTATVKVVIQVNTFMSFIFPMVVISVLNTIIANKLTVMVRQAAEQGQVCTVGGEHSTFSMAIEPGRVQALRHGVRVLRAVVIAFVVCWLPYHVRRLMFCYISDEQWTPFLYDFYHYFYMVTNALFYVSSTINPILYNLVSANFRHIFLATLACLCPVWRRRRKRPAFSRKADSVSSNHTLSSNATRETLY

System in the first series: not listed separately
In words: Half life in rat plasma by UPLC-MS analysis. Type of series: ADME, cell-free.
`CC[C@H](C)[C@H](NC(=O)[C@H](Cc1ccc(O)cc1)NC(=O)[C@@H]1CCCN1C(=O)[C@H](CCCNC(=N)N)NC(=O)[C@@H](N)CCCNC(=N)N)C(=O)N[C@@H](CC(C)C)C(=O)O` returned a half-life of 0.05 h. As to `CC[C@H](C)[C@H](NC(=O)[C@@H]1Cc2ccc(O)c(c2)CC=CCCCCCCC(=O)N[C@@H](CCCCN)C(=O)N2CCC[C@H]2C(=O)N1)C(=O)N[C@@H](CC(C)C)C(=O)O`, the half-life is 12 h.

A further series addresses T1, Neurotensin receptor type 1 (Homo sapiens, UniProt P30989). In words: Agonist activity at GFP10-tagged human NTS1 expressed in CHO-K1 cells assessed as Rluc2-fused beta-arrestin2 recruitment after 20 mins by BRET assay. The class given is functional, cell-based.
`CC[C@H](C)[C@H](NC(=O)[C@@H]1Cc2ccc(O)c(c2)CC=CCCCCCCC(=O)N[C@@H](CCCCN)C(=O)N2CCC[C@H]2C(=O)N1)C(=O)N[C@@H](CC(C)C)C(=O)O`: the concentration giving a half-maximal response (EC50) was determined as 1.37 µM.

The next series concerns the target T1, Neurotensin receptor type 1. In words: Displacement of 125I-[Tyr3]-NT from human NTS1 receptor expressed in CHO-K1 cell membranes after 60 mins by gamma-counting method. Background: Loss of bound radioactivity is the signal in a displacement assay; it reports binding, not function.
With `C=CC[C@H](NC(=O)[C@H](Cc1ccc(O)cc1)NC(=O)[C@@H]1CCCN1C(=O)[C@H](CCCCN)NC(=O)[C@@H](N)CC=C)C(=O)N[C@@H](CC(C)C)C(=O)O` (H-[AllylGly]KPY[AllylGly]L-OH), the IC50 stood at 1.7 µM. `CC(C)C[C@H](NC(=O)[C@@H]1COCC=CCOC[C@H](N)C(=O)N[C@@H](CCCCN)C(=O)N2CCC[C@H]2C(=O)N[C@@H](Cc2ccc(O)cc2)C(=O)N1)C(=O)O` (H-[Ser(allyl)]KPY[Ser(allyl)]L-OH; staple 1-5) showed an IC50 greater than 100 µM. On the same count and under the same terms, with `CC[C@H](C)[C@H](NC(=O)[C@@H]1Cc2ccc(O)c(c2)CC=CC[C@H](NC(=O)[C@@H](N)CCCCN)C(=O)N2CCC[C@H]2C(=O)N1)C(=O)N[C@@H](CC(C)C)C(=O)O` (H-K[AllylGly]P[X1]IL-OH; staple 2-4) the figure was 7.6 µM; with `CC(C)C[C@H](NC(=O)[C@@H]1COCC=CCc2cc(ccc2O)C[C@H](NC(=O)[C@@H]2CCCN2C(=O)[C@@H](N)CCCCN)C(=O)N1)C(=O)O`, 29.8 µM; with `CC(C)C[C@H](NC(=O)[C@@H]1CC=CC[C@@H](N)C(=O)N[C@@H](CCCCN)C(=O)N2CCC[C@H]2C(=O)N[C@@H](Cc2ccc(O)cc2)C(=O)N1)C(=O)O`, 10 µM.

`CC[C@H](C)[C@H](NC(=O)[C@@H]1Cc2ccc(O)c(c2)CC=CCCCCCCC(=O)N[C@@H](CCCCN)C(=O)N2CCC[C@H]2C(=O)N1)C(=O)N[C@@H](CC(C)C)C(=O)O` had an IC50 of 0.4 µM. As for `CC(C)C[C@H](NC(=O)[C@@H]1CC=CC[C@H](N)C(=O)N[C@@H](CCCCN)C(=O)N2CCC[C@H]2C(=O)N[C@@H](Cc2ccc(O)cc2)C(=O)N1)C(=O)O`, the IC50 stood at 17 µM.

`C=CCCCCCCC(=O)N[C@@H](CCCCN)C(=O)N1CCC[C@H]1C(=O)N[C@@H](Cc1ccc(O)c(CC=C)c1)C(=O)N[C@H](C(=O)N[C@@H](CC(C)C)C(=O)O)[C@@H](C)CC` (X2-KP[X3]IL-OH) yielded an IC50 of 1.4 µM. In the case of `CC[C@H](C)[C@H](NC(=O)[C@@H]1Cc2ccc(O)c(c2)CC=CCOC[C@H](NC(=O)[C@@H](N)CCCCN)C(=O)N2CCC[C@H]2C(=O)N1)C(=O)N[C@@H](CC(C)C)C(=O)O` (H-K[Ser(allyl)]P[X1]IL-OH; staple 2-4), the IC50 is 10.3 µM. Take `CC(C)C[C@H](NC(=O)[C@H]1CC=CC[C@H](N)C(=O)N[C@@H](CCCCN)C(=O)N2CCC[C@H]2C(=O)N[C@@H](Cc2ccc(O)cc2)C(=O)N1)C(=O)O`: the concentration for half-maximal inhibition (IC50) stood at 14.3 µM.

As to `CC(C)C[C@H](NC(=O)[C@H]1CC=CC[C@@H](N)C(=O)N[C@@H](CCCCN)C(=O)N2CCC[C@H]2C(=O)N[C@@H](Cc2ccc(O)cc2)C(=O)N1)C(=O)O`, the half-maximal inhibitory concentration (IC50) came out at 19.8 µM. As to `CC[C@H](C)[C@@H]1NC(=O)[C@H](Cc2ccc(O)cc2)NC(=O)[C@@H]2CCCN2C(=O)[C@@H](NC(=O)[C@@H](N)CCCCN)CC=CC[C@@H](C(=O)O)NC1=O` (H-K[AllylGly]PYI[AllylGly]-OH; staple 2-6), the IC50 is greater than 100 µM.

As usually defined, the half-life is how long it takes for the measured level to halve. A higher half-life goes with slow loss. One may read the EC50 as the concentration that produces a half-maximal response. In general, IC50 refers to the point on the concentration scale where inhibition reaches its midpoint. Higher therefore signals weaker potency.
